Consider three compounds from publication PMC5841354, “Gomesin peptides prevent proliferation and lead to the cell death of devil facial tumour disease cells” (Cell Death Discovery, 2018).

Where a SMILES comes first, the peptide text is derived from it. Bridges are numbered along the chain shown (N, C = ends). [ ]: non-standard residue; d: D form. pGlu = O=C1CC[C@@H](C(=O)O)N1

The subject of data set [1] is DFTD4 cells. Put plainly: MTT cell viability, DFTD4 cells. The class given is cell-based, Tasmanian devil (Sarcophilus harrisii). The settings on record: for cell viability / anti-proliferative activity in DFTD4 cells: 50 µg/mL. From the text: (§1) All DFTD (DFTD1, DFTD2, and DFTD4) and fibroblast (FIBS) cell lines were obtained from the Department of Primary Industries, Parks, Water, and Environment, State Government of Tasmania (DPIPWE) and were established as part of management plan and adhere to a standard operating practice. The DFTD1 cell line with catalogue number 3287 is derived from the tumour from a female devil (tag number: 06/2887) collected at St Marys, Eastern Tasmania in 2006. DFTD2 cell line with catalogue number 8961 was developed from a tumour from a male devil (tag number: 12/0625) collected at Kempton, Northern Tasmania in 2012. The DFTD4 cell line with catalogue number 4099 was developed from the tumour of a male devil (tag number: 07/0192) that was collected at Freycinet, east coast of Tasmania in 2007 and Fibroblasts cells (FIBS) with catalogue number 497 were obtained from a healthy devil male pup (tag number: 05/0962) held at Mount Pleasant, Southeastern of Tasmania in 2005.
(§2) Devil Facial Tumor cancer cell lines, and the control Tasmanian Devil fibroblast (FIBS) healthy cell line were maintained in a humidified incubator at 35 °C and 5% CO2. The DFTD cell lines were cultured in RPMI-1640 medium supplemented with 10% FCS, and 2 mM Glutamax. The FIBS was grown in GIBCO AmnioMAX-C100 Basal Medium liquid, containing AmnioMAX-C100 supplement. Penicillin/streptomycin (PS) (100 U/ml each) was added to both media. The cells were passaged at ~90% confluency. Functional studies were performed with passages up to 20. All cell lines were mycoplasma free.
(§3) Cell viability as an indicator of the number of viable and proliferative cells was measured by MTT according to the protocol of the manufacturer (Sigma-Aldrich, Australia). In brief, 8000 DFTD and 5000 FIBS cells/well were seeded in a 96-flat adherent microtiter well plate for 24 h to allow cell adhesion. Gomesin peptides and/or analogues were then added to the plates to measure MTT reduction. Plates were measured after 48 h at 540 nm absorbance in a microplate reader (BIOTEK PowerWave XS, USA). 0.1% SDS was used as a positive control (100% toxicity). A row of untreated cells was used to define 100% viability and blank wells containing only media were used to extract background. The concentration of gomesin peptides causing 50% inhibition (EC50) in DFTD and FIBS cells was determined using GraphPad Prism Software (Graphpad Inc, USA).

Data set [2] has as its system DFTD4 cells. Put plainly: qRT-PCR of cell cycle check-point, pro-survival and apoptosis genes. The class given is cell-based, Tasmanian devil (Sarcophilus harrisii). Particulars: 50 μg/mL, vs. vehicle. The method, then: Total RNA was extracted from both untreated (control) and gomesin-treated DFTD4 cells using an RNeasy kit (Qiagen, Australia) and 1 µg was reverse-transcribed into cDNA using SensiFast (Bioline, UK). Quantitative real time-PCR (qRT-PCR) to quantitate mRNA expression was performed on a LightCycler Instrument (Roche Molecular Biochemicals, Australia) with Tasmanian devil 18S used as the reference (housekeeper) gene. All primers are listed in Supplementary.

Data set [3] deals with DFTD4 cells. The data set can be described thus: Mitochondrial membrane potential (Rhodamine 123). The class given is cell-based, Tasmanian devil (Sarcophilus harrisii). Particulars: 50 µg/mL, 24 h, vs. vehicle. The protocol:
We measured the mitochondrial membrane potential (MMP) using Rhodamine 123 (Rhod-123) (Sigma-Aldrich, Australia), a cationic dye that is localised in mitochondria. Loss-of-MMP results in loss-of-Rhod-123 fluorescence. Approximately 1 × 10^6 DFTD4 cells treated with AgGom or HiGom at 50 µg/mL for 24 h were collected and resuspended in 0.1 ml of culture medium, stained with 10 µg/mL Rhod-123 for 30 min, and then washed with PBS. The intracellular concentration of Rho123 was determined immediately after by flow cytometry (BD Biosciences, USA) using an excitation wavelength of 488 nm. The data were analysed using FlowJo v10.06 (FlowJo, USA).

For data set [4], the system named is FIBS cells. Put plainly: MTT cell viability, non-transformed fibroblasts (FIBS). The class given is cell-based, Tasmanian devil (Sarcophilus harrisii). The settings on record: 48 h; for deleterious effects on FIBS viability: 50 µg/mL.
Source text: as §1, §2, §3

Data set [5] concerns DFTD4 cells. Put plainly: Reactive oxygen species (Carboxy-H2DCFDA, flow cytometry). The class given is cell-based, Tasmanian devil (Sarcophilus harrisii). Particulars: 50 μg/mL, 24 h, vs. untreated. The method, then:
An Amplex Red Hydrogen Peroxidase assay kit (Invitrogen, Australia) was used to measure reactive oxygen species (ROS) generation in DFTD4 cells. A fluorescence probe that detects intracellular H2O2, Carboxy-H2DCFDA, was added 30 min prior to collecting cells to measure ROS production in DFTD4 cells that were previously treated with gomesin peptides at 50 µg/mL for 24 h. Fluorescent cells were washed twice with PBS prior to analysis on a FACSCalibur flow cytometer (BD Biosciences, USA) using excitation and emission wavelengths of 492 nm and 517 nm, respectively. Approximately 10,000 events were recorded per sample and the readout was analysed using FlowJo software v10.06 (FlowJo, USA).

In data set [6] the test system is DFTD4 cells. Put plainly: Annexin V-FITC/PI apoptosis and necrosis. Particulars: 50 µg/mL, 24 h. The class given is cell-based, Tasmanian devil (Sarcophilus harrisii). The method, then: Apoptosis in DFTD4 cells treated with AgGom or HiGom was measured using an Annexin V-FITC Apoptosis detection kit in combination with a Canto II high-throughput fluorescence-activated cell sorter (BD Biosciences, USA). Briefly, cells were seeded at a density of 100,000 cells/well in a round-bottom 96-well plate and treated with 50 µg/mL AgGom or HiGom for 24 h. The cells were collected mechanically, washed twice with PBS and once with wash buffer provided by the manufacturer. Cells were stained simultaneously with FITC-labelled annexin V and PI for 30 min in the dark and at room temperature before being analysed.

The subject of data set [7] is DFTD4 cells. The data set can be described thus: Cell cycle analysis (PI, flow cytometry). The settings on record: 50 μg/mL, 24 h, mean ± SEM, three independent experiments. The class given is cell-based, Tasmanian devil (Sarcophilus harrisii). The protocol:
DFTD4 cells were synchronised by removing serum from the medium for ~24 h. Cells were then transferred into medium containing serum and treated with AgGom or HiGom at 50 µg/mL for 24 h. Cells were detached mechanically, washed with PBS and fixed with 70% ethanol for ~1 h at 4 °C. Ethanol was removed by centrifugation (453 g for 5 min) and cells were washed with PBS. Cells were treated with 5 µL of 10 µg/mL ribonuclease A to remove RNA contamination and further incubated for 1 h at 37 °C to allow release of low-molecular weight DNA. Cell pellets were stained with 10 µL of propidium iodide (PI) (1 mg/ml) and analysed at a maximum emission of 605 nm using a LSR Fortessa 5 analyser (BD Biosciences, San Diego, CA, US). Approximately 10,000 events were recorded and data were analysed using FlowJo software v10.06 (FlowJo, US).

In data set [8] the test system is cultured DFTD cells. The settings on record: cited from earlier work. From the text:
In this pioneer study, we examined for the first time, in our knowledge, the therapeutic potential of spider-venom peptides against DFTD. Our study provides a molecular and mechanistic characterisation of the mode of action of gomesin peptides to prevent the proliferation of DFTD cells. This is especially relevant since the Tasmanian devil population has declined by at least 80%[1] and currently the therapeutic strategies to slow down the progression of DFTD in infective-devils have been ineffective. That was the case of vincristine, a chemotherapeutic agent used in human and veterinary medici ...

In data set [9] the test system is DFTD1 cells. Put plainly: MTT cell viability, DFTD1 cells. Particulars: Table 3, 48 h. The class given is cell-based, Tasmanian devil (Sarcophilus harrisii).
Source text: as §1, with “2005. […]” for “2005.”
(§4) Cell viability as an indicator of the number of viable and proliferative cells was measured by MTT according to the protocol of the manufacturer (Sigma-Aldrich, Australia). […] Plates were measured after 48 h at 540 nm absorbance in a microplate reader (BIOTEK PowerWave XS, USA). […]

Data set [10] concerns DFTD2 cells. The data set can be described thus: MTT cell viability, DFTD2 cells. The class given is cell-based, Tasmanian devil (Sarcophilus harrisii). The settings on record: Table 3, 48 h.
Source text: as §1, with “2005. […]” for “2005.”
as §4

On to `CC(C)C[C@@H]1NC(=O)[C@H](CCCNC(=N)N)NC(=O)[C@H](CCCNC(=N)N)NC(=O)[C@@H](NC(=O)[C@@H]2CCC(=O)N2)CSSC[C@@H](C(=O)N[C@@H](CCCNC(=N)N)C(=O)NCC(=O)N[C@@H](CCCNC(=N)N)C(N)=O)NC(=O)[C@H](Cc2ccc(O)cc2)NC(=O)[C@H]([C@@H](C)O)NC(=O)[C@H](C(C)C)NC(=O)[C@@H]2CSSC[C@H](NC1=O)C(=O)N[C@@H](Cc1ccc(O)cc1)C(=O)N[C@@H](CCCNC(=N)N)C(=O)N[C@@H](CC(N)=O)C(=O)N[C@@H](CCCNC(=N)N)C(=O)N2` [HiGom] ([pGlu]CRRLCYRNRCVTYCRGR-NH2; disulfide 2-15, 6-11), for which, in data set [1] (48 h), the “cell viability / anti-proliferative activity in DFTD4 cells” value was “dramatically reduced the cell viability”. In addition, the “anti-proliferative / cytotoxic activity compared with AgGom” value in data set [1] (DFTD cell lines (DFTD1, DFTD2, DFTD4), 48 h) is “more cytotoxic than AgGom”. For the same compound, in data set [2], the “expression of BCL2” value was “enhanced”, the “expression of p53” value is given as “enhanced” and the p27 expression entry is on record as “elevated”. Moreover, in data set [3], the MMP result was “significant decrease in MMP”. Further, the “deleterious effects on FIBS viability” value in [4] was “not statistically significant”. In addition, the “effects on FIBS viability” value in data set [4] (0.5 to 25 µg/mL) is on record as “negligible effects”. The ROS entry in data set [5] was “significant increase in ROS”. Further, in data set [6], the “early or late apoptotic cell ratio” value is “not altered” and the “necrosis of DFTD cells compared to untreated cells” value is “significantly increased necrosis”. Moreover, in [7], the G0/G1 is 47.2 ± 0.66, the G2/M is reported as 13.3 ± 0.7 and the S-phase was determined as 13.7 ± 1.9.
In the case of `CC(C)Cn1cnc2c(N)nc3ccccc3c21` [imiquimod], the “apoptotic activity against cultured DFTD cells” value in data set [8] is recorded as “displayed apoptotic activity”.
On to “ZCRRLCYKQRCVTYCRGR-NH2 (bicyclic or more) [AgGom, 18-residue spider peptide gomesin first isolated from hemocytes of Acanthoscurria gomesiana]”, for which the “cell viability / anti-proliferative activity in DFTD4 cells” value in data set [1] (48 h) was “dramatically reduced the cell viability”. This compound also showed an EC50 in data set [1] (DFTD4 cells, 48 h exposure, three independent experiments in triplicate) of 25.25 µg/mL. In data set [2], the “expression of BCL2” value is recorded as “enhanced”, the “expression of p21” value is “induction”, the “expression of p53” value was “enhanced” and the “expression of pro-survival gene MCL1” value is reported as “induction”. Also, the p27 expression result in [2] is “statistically significant increase”. Further, the “EC50 (µg/mL) DFTD1” value in [9] is given as 20.4 µg/mL. Besides, the MMP result in data set [3] was “significant decrease in MMP”. Moreover, the “deleterious effects on FIBS viability” value in data set [4] was “not statistically significant”. In addition, the ROS entry in [5] was “significant increase in ROS”. Besides, the “EC50 (µg/mL) DFTD2” value in data set [10] is 12.29 µg/mL. Besides, in data set [6], the “early or late apoptotic cell ratio” value is given as “not altered” and the “necrosis of DFTD cells compared to untreated cells” value is on record as “significantly increased necrosis”. Also, in [7], the G0/G1 was 39.9 ± 1.32, the G2/M is recorded as 14.3 ± 0.9 and the S-phase amounted to 11.47 ± 1.35.
